Experimental data taken from publication PMC4301037, “Identification and Structure–Function Analysis of Subfamily Selective G Protein-Coupled Receptor Kinase Inhibitors” (ACS Chemical Biology, 2014).
Where two headings read alike, the source gives them in different places.

How the values were obtained:
GRK2 [1] = biological target: T1, GRK2 (Bos taurus, UniProt P21146, S670A); experiment: In vitro phosphorylation assay (tubulin, 5 μM ATP), GRK2; assay type: biochemical, bovine; settings: for IC50: read-out: GRK2 log IC50 (converted)
T1 construct: made in house
T1 sequence (P21146 1-689 S670A): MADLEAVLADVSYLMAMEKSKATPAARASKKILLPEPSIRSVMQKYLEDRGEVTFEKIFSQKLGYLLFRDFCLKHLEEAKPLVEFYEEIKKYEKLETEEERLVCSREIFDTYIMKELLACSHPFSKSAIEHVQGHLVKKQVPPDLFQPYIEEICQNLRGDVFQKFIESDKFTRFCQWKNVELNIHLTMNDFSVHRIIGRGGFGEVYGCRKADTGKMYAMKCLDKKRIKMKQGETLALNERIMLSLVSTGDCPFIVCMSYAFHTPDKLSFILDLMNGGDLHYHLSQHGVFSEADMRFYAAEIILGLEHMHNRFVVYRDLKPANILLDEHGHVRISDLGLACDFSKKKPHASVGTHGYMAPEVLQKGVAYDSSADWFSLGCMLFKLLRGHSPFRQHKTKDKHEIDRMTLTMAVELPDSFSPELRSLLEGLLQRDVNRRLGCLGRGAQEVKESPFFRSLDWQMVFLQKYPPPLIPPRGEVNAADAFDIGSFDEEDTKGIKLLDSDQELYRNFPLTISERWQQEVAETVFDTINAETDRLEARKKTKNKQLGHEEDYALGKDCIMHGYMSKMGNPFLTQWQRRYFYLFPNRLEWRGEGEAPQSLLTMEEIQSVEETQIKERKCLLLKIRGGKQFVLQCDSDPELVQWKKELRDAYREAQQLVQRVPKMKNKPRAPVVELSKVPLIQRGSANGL

GRK1, 2, and 5 and PKA = experiment: Ssel selectivity score calculated from inhibition of GRK1, 2, 5 and PKA; settings: selectivity score from inhibition of GRK1, 2, 5 and PKA; <0.5 selective
protein kinase A (PKA) = biological target: T2, protein kinase A (PKA) (Mus musculus, UniProt P05132); experiment: DSF retest (confirmation), PKA; assay type: binding; settings: for PKA Tm: 0.2 mg mL^–1 kinase; for PKA ΔTm: relative to intrinsic melting point of the kinase
T2 construct: His tag (inferred from pET15b vector and Ni-NTA column) (N); host or cells: E. coli Rosetta(DE3)pLysS
Experimental: Fourteen compounds (Figure 1a–c), including all GRK2 hits except staurosporine, and the most stabilizing pyrrolopyrimidine-containing compounds were obtained from GSK and retested using DSF on GRKs representing each vertebrate subfamily (GRK1, 2, and 5) (Table 1). […] The ability of these compounds to shift the Tm of the related AGC family kinase member protein kinase A (PKA) was also assessed (Table 1). In no case was ΔTm greater for PKA than for one of the tested GRKs. […]. There was no correlation for GRK1 (Figure 2c).
DSF was conducted using a ThermoFluor plate reader (Johnson & Johnson) in a buffer containing 20 mM HEPES, pH 7.0, 5 mM MgCl2, 2 mM DTT, and 1 mM CHAPS with 0.2 mg mL^–1 final concentration of GRK or PKA and 100 μM 1-anilinonaphthalene-8-sulfonic acid.[14]

GRK1 [2] = biological target: T3, GRK1 (Bos taurus, UniProt P28327); experiment: DSF retest (confirmation), GRK1; assay type: binding, bovine; settings: for GRK1 Tm: 0.2 mg mL^–1 kinase; for GRK1 ΔTm: relative to intrinsic melting point of the kinase
T3 construct: Bovine GRK1_1–535, bovine and human GRK2S670A; made in house
T3 sequence (P28327 1-535): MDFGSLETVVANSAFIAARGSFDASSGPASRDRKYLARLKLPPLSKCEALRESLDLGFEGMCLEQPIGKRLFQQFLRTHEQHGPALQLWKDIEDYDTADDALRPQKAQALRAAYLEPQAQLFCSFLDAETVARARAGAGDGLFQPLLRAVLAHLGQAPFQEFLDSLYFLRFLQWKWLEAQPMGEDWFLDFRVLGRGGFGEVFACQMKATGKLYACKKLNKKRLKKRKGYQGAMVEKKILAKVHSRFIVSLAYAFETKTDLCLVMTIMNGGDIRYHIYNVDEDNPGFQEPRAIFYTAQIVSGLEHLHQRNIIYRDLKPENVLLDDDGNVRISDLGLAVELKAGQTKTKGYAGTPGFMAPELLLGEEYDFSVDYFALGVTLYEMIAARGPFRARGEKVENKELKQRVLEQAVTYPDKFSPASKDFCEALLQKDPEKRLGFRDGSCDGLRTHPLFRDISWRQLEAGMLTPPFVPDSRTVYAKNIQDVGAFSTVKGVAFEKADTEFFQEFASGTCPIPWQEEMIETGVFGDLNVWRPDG

224 kinases = tested on: 224 kinases; set-up: method as in ChEMBL database; settings: ref ChEMBL database; cited from earlier work
GRK5 [3] = biological target: T4, GRK5 (Bos taurus, UniProt P43249); experiment: DSF retest (confirmation), GRK5; assay type: binding, bovine; settings: for GRK5 Tm: 0.2 mg mL^–1 kinase; for GRK5 ΔTm: relative to intrinsic melting point of the kinase
T4 construct: when using full-length kinases as the receptor[37] instead of isolated kinase domains; made in house
T4 sequence (P43249 whole entry, the tested form may be a part): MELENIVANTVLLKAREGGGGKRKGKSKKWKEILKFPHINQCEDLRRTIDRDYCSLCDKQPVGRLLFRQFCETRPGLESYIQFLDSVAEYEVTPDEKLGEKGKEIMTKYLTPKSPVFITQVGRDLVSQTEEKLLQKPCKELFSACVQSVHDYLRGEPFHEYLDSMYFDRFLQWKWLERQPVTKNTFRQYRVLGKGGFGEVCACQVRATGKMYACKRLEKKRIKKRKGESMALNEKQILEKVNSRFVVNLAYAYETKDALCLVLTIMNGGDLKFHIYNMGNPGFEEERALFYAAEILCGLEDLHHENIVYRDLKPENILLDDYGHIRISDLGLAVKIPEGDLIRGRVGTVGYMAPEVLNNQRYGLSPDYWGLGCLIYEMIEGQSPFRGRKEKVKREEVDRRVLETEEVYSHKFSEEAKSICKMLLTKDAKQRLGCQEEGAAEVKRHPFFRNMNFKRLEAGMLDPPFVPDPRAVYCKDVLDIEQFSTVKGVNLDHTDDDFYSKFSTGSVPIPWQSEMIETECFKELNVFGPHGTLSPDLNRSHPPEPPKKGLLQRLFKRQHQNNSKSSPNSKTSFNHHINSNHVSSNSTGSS

bovine GRK5 = biological target: T5, bovine GRK5 (Bos taurus, UniProt P43249); experiment: Primary DSF inhibitor screen, GRK5; assay type: binding; settings: for rank in the primary screen, GRK5: rank ordering of compounds in primary DSF screen
T5 construct: when using full-length kinases as the receptor[37] instead of isolated kinase domains; made in house
T5 sequence (P43249 whole entry, the tested form may be a part): as above

PKA = biological target: T6, PKA (Mus musculus, UniProt P05132); experiment: PKA inhibition assay (ADP-Glo, CREBtide, 100 μM ATP); assay type: biochemical; settings: for IC50: logarithm of IC50 (−3.3 corresponds to 0.5 mM, footnote c), 438 nM PKA, 100 μM ATP, CREBtide, read-out: PKA log IC50 (converted)
T6 construct: His tag (inferred from pET15b vector and Ni-NTA column) (N); host or cells: E. coli Rosetta(DE3)pLysS

human GRK2S670A = biological target: T7, human GRK2S670A (Homo sapiens, UniProt P25098, S670A); experiment: Primary DSF (differential scanning fluorimetry) inhibitor screen, GRK2; assay type: binding; settings: 10 μM compound
T7 construct: when using full-length kinases as the receptor[37] instead of isolated kinase domains; made in house
T7 sequence (P25098 1-689 S670A): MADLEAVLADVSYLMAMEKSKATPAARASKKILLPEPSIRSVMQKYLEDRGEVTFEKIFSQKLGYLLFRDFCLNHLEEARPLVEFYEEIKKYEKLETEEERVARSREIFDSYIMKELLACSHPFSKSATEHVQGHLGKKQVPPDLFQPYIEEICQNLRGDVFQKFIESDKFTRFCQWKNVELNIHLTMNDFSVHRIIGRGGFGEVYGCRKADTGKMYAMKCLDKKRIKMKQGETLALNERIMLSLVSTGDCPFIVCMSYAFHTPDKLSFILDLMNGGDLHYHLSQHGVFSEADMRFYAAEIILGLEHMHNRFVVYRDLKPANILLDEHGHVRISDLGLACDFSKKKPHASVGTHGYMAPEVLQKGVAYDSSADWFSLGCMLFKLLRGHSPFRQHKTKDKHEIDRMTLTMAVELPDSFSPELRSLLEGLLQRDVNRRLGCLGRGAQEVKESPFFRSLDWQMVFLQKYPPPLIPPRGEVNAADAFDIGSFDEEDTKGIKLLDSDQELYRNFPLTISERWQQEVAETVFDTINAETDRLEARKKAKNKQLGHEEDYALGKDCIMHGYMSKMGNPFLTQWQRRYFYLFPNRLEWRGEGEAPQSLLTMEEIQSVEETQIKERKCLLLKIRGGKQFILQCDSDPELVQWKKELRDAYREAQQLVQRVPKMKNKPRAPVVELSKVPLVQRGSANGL

GRK1 [4] = biological target: T3, GRK1; experiment: In vitro phosphorylation assay (tubulin, 5 μM ATP), GRK1; assay type: biochemical, bovine; settings: for IC50: read-out: GRK1 log IC50 (converted)
GRK5 [5] = biological target: T4, GRK5; experiment: In vitro phosphorylation assay (tubulin, 5 μM ATP), GRK5; assay type: biochemical, bovine; settings: for IC50: read-out: GRK5 log IC50 (converted)
GRK2 [6] = biological target: T8, GRK2 (Homo sapiens, UniProt P25098, S670A); experiment: DSF retest (confirmation), GRK2; assay type: binding; settings: for GRK2 Tm: 0.2 mg mL^–1 kinase; for GRK2 ΔTm: relative to intrinsic melting point of the kinase
T8 construct: made in house
T8 sequence (P25098 1-689 S670A): T7 sequence (P25098 1-689 S670A)

[7] = 10 μM compound, 2 μM kinase, relative to DMSO control, read-out: ΔTm, primary screen, GRK5
[8] = 10 μM compound, 2 μM kinase, relative to DMSO control

Row | IC50 (GRK2 [1]) | GRK2 fold (increase in potency relative to paroxetine) (GRK2 [1]) | PKA Tm (protein kinase A (PKA)) | PKA ΔTm (protein kinase A (PKA)) | GRK1 Tm (GRK1 [2]) | GRK1 ΔTm (GRK1 [2]) | GRK5 Tm (GRK5 [3]) | GRK5 ΔTm (GRK5 [3]) | ΔTm at 10 µM (bovine GRK5; [7]) | IC50 (PKA) | IC50 (GRK1 [4]) | IC50 (GRK5 [5]) | GRK5 fold (increase in potency relative to paroxetine) (GRK5 [5]) | GRK2 Tm (GRK2 [6]) | GRK2 ΔTm (GRK2 [6]) | SMILES | Ssel (GRK1, 2, and 5 and PKA) | inhibition pattern in kinase cross-screening, in words (224 kinases) | ΔTm, primary screen, GRK5 (bovine GRK5; [8]) | rank in the primary screen, GRK5 (bovine GRK5; 10 μM compound) | further results
1 | 1 µM | 1.3 fold | 52.2 °C | 6.8 °C | 26.7 °C | 6.8 °C | 28.7 °C | 2.0 °C | 3.43 °C | 0.501 µM | 63.1 µM | 3.16 µM | 40 fold | 49.3 °C | 11.8 °C | CCn1c(-c2nonc2N)nc2c(C#CC(C)(C)O)nc(O[C@@H](CN)c3ccccc3)cc21 [GSK1007102B] | 0.917 | strong inhibition of many of the 221 kinases evaluated |  |  | IC50 against PKA, in words (PKA): nanomolar; ΔTm, primary screen, GRK2 (human GRK2S670A; 2 μM kinase, relative to DMSO control): 5.4 °C; ΔTm at 10 µM (human GRK2S670A; 2 μM kinase, relative to DMSO control, read-out: ΔTm, primary screen, GRK2): 5.41 °C; rank in the primary screen, GRK2 (human GRK2S670A; rank ordering of compounds in primary DSF screen): 1; GRK1 fold (increase in potency relative to paroxetine) (GRK1 [4]; relative to paroxetine): 6 fold
2 | 200 µM | 0.0063 fold | 47.4 °C | 2.0 °C | 24.8 °C | 4.9 °C | 27.7 °C | 0.9 °C | 6.93 °C | > 501 µM | > 1000 µM | 100 µM | 1.3 fold | 40.0 °C | 2.5 °C | Fc1cccc(COc2ccc(Nc3ncnc4cc(-c5ccc[nH]5)sc34)cc2Cl)c1 [GW693881A] | 1.005 | strong inhibition of many of the 221 kinases evaluated | 6.9 °C | 12 | 

Row | SMILES | IC50 (GRK2 [1]) | GRK2 fold (increase in potency relative to paroxetine) (GRK2 [1]) | PKA Tm (protein kinase A (PKA)) | PKA ΔTm (protein kinase A (PKA)) | GRK1 Tm (GRK1 [2]) | GRK1 ΔTm (GRK1 [2]) | GRK5 Tm (GRK5 [3]) | GRK5 ΔTm (GRK5 [3]) | ΔTm at 10 µM (bovine GRK5; [7]) | IC50 (PKA) | IC50 (GRK1 [4]) | IC50 (GRK5 [5]) | GRK5 fold (increase in potency relative to paroxetine) (GRK5 [5]) | GRK2 Tm (GRK2 [6]) | GRK2 ΔTm (GRK2 [6]) | Ssel (GRK1, 2, and 5 and PKA) | inhibition pattern in kinase cross-screening, in words (224 kinases) | ΔTm, primary screen, GRK5 (bovine GRK5; [8]) | rank in the primary screen, GRK5 (bovine GRK5; 10 μM compound) | further results
3 | CN(c1ccc(NC(=O)Nc2ccc(OC(F)(F)F)cc2)cc1)c1ccnc(Nc2cccc(S(N)(=O)=O)c2)n1 [GW806742X] | > 1000 µM |  | 45.6 °C | 0.2 °C | 20.3 °C | 0.4 °C | 27.1 °C | 0.4 °C |  | > 501 µM | > 1000 µM | > 1000 µM |  | 36.4 °C | –1.1 °C | 1.386 | strong inhibition of many of the 221 kinases evaluated | 6.5 °C | 16 | ΔTm at 10 µM (bovine GRK5; read-out: ΔTm, primary screen, GRK5, 10 μM compound, 2 μM kinase, relative to DMSO control): 6.48 °C
